Source: paper PMC5908474 (European journal of medicinal chemistry, 2018)
Where two headings read alike, the source gives them in different places. Each block holds one compound with its values, some of them ahead of it.

Key:
recombinant human S1PR1 = recombinant human S1PR1 (Homo sapiens, UniProt P21453); assay: [32P]S1P competitive binding assay, S1PR1; conditions: for IC50: mean ± SD, CHO cell membrane, recombinant human S1PR1, 0.1 nM [32P]S1P; for fold increased S1PR1 IC50 value compared to compound 4: vs compound 4 (2.6 nM)
Sequence of recombinant human S1PR1 (P21453 whole entry): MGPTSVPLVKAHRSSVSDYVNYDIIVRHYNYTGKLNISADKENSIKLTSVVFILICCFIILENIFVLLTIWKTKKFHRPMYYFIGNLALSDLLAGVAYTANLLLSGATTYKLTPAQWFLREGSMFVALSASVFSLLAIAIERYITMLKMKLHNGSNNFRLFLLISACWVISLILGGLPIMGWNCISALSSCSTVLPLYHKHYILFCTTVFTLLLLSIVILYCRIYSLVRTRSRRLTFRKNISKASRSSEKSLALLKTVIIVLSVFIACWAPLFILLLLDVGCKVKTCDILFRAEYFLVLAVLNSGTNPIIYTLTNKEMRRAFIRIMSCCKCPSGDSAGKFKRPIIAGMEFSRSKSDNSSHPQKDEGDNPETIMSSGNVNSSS

recombinant human S1PR2 = recombinant human S1PR2 (Homo sapiens, UniProt O95136); assay: [32P]S1P competitive binding assay, S1PR2
Sequence of recombinant human S1PR2 (O95136 whole entry): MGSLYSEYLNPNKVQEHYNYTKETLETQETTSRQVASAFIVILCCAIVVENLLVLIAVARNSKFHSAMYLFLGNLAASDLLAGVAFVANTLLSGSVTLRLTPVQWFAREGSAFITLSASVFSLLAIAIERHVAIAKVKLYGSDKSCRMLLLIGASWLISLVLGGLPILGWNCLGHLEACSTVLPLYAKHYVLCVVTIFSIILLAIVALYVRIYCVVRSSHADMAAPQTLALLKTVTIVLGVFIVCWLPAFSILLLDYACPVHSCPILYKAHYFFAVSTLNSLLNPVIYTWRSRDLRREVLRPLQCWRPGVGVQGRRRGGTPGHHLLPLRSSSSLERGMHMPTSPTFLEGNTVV

recombinant human S1PR3 = recombinant human S1PR3 (Homo sapiens, UniProt Q99500); assay: [32P]S1P competitive binding assay, S1PR3
Sequence of recombinant human S1PR3 (Q99500 whole entry): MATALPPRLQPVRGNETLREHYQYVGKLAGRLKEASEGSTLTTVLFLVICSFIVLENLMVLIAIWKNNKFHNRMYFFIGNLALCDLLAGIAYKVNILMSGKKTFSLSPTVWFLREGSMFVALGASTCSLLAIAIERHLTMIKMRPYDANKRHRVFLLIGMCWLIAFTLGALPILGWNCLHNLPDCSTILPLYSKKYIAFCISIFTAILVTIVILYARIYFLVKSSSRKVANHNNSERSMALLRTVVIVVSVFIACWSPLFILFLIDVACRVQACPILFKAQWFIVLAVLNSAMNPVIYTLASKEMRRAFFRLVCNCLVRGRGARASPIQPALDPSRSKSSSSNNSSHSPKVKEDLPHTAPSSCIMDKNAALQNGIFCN

recombinant human S1PR4 = molecular target: T1, recombinant human S1PR4 (Homo sapiens, UniProt O95977); assay: [32P]S1P competitive binding assay, S1PR4
T1 sequence (O95977 1-384): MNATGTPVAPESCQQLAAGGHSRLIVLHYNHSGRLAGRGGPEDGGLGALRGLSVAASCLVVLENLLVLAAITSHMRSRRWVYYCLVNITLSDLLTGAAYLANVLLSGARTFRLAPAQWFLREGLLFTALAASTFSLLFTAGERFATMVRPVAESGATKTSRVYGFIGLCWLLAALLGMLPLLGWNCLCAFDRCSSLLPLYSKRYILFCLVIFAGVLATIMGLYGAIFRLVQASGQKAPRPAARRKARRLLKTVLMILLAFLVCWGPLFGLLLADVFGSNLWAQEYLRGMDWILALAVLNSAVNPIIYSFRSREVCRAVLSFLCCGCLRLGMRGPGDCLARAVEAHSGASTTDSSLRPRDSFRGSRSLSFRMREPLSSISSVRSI

recombinant human S1PR5 = recombinant human S1PR5 (Homo sapiens, UniProt Q9H228); assay: [32P]S1P competitive binding assay, S1PR5
Sequence of recombinant human S1PR5 (Q9H228 whole entry): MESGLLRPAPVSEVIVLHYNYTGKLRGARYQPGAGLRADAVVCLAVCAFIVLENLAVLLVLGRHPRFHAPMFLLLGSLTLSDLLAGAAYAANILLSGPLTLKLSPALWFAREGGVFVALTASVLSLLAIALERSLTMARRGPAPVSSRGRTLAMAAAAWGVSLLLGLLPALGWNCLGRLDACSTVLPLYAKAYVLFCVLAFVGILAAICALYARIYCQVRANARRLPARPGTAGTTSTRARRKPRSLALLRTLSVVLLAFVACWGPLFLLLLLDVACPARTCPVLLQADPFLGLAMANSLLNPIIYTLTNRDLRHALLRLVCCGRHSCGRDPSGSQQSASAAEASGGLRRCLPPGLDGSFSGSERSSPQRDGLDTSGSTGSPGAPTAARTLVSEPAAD

Compound: NS(=O)(=O)c1ccc(-c2noc(-c3ccc(OCCF)c(C(F)(F)F)c3)n2)cc1 [9a, 4-(5-(4-(2-Fluoroethoxy)-3-(trifluoromethyl)phenyl)-1,2,4-oxadiazol-3-yl)benzenesulfonamide]
- IC50 (recombinant human S1PR2): > 1000 nM
- IC50 (recombinant human S1PR3): > 1000 nM

Compound: O=C(O)CCNCc1ccc(-c2noc(-c3ccc(OCCF)c(C(F)(F)F)c3)n2)cc1 [16b, 3-((4-(5-(4-(2-Fluoroethoxy)-3-(trifluoromethyl)phenyl)-1,2,4-oxadiazol-3-yl)benzyl)amino)propanoic acid]
- IC50 (recombinant human S1PR1; S1PR1 IC50 (nM)): 6.3 ± 1.3 nM
- IC50 (recombinant human S1PR2): > 1000 nM
- IC50 (recombinant human S1PR3): > 1000 nM
- IC50 (recombinant human S1PR4): > 1000 nM
- IC50 (recombinant human S1PR5): > 1000 nM

Compound: O=C(NO)c1ccc(-c2noc(-c3ccc(OCCF)c(C(F)(F)F)c3)n2)cc1 [10b, 4-(5-(4-(2-Fluoroethoxy)-3-(trifluoromethyl)phenyl)-1,2,4-oxadiazol-3-yl)-N-hydroxybenzamide]
- fold increased S1PR1 IC50 value compared to compound 9b (recombinant human S1PR1; vs benzamide 9b): 4 fold

Compound: O=C(O)c1ccc(-c2noc(-c3ccc(OCCF)c(C(F)(F)F)c3)n2)cc1 [10a, 4-(5-(4-(2-Fluoroethoxy)-3-(trifluoromethyl)phenyl)-1,2,4-oxadiazol-3-yl)benzoic acid]
- IC50 (recombinant human S1PR1; S1PR1 IC50 (nM)): > 1000 nM

Compound: O=C(O)c1cn(Cc2ccc(-c3noc(-c4ccc(OCCF)c(C(F)(F)F)c4)n3)cc2)nn1 [12a, 1-(4-(5-(4-(2-Fluoroethoxy)-3-(trifluoromethyl)phenyl)-1,2,4-oxadiazol-3-yl)benzyl)-1H-1,2,3-triazole-4-carbox-ylic acid]
- IC50 (recombinant human S1PR1; read-out: S1PR1 IC50): 341 ± 126 nM
- fold increased S1PR1 IC50 value compared to compound 4 (recombinant human S1PR1): 130 fold

Other lines, results leading:

- selectivity toward S1PR1 over S1PR2-5 (recombinant human S1PR1; S1PR1 over S1PR2-5): > 100 fold
- fold decreased S1PR1 IC50 value compared to acid 12a (recombinant human S1PR1; vs 12a (341 nM)): 35 fold
- IC50 (recombinant human S1PR2; read-out: IC50 (nM) S1PR2, mean ± SD, membranes with recombinant human S1PR2, [32P]S1P): > 1000 nM
- IC50 (recombinant human S1PR3; read-out: IC50 (nM) S1PR3, mean ± SD, membranes with recombinant human S1PR3, [32P]S1P): > 1000 nM
- IC50 (recombinant human S1PR4; read-out: IC50 (nM) S1PR4, mean ± SD, membranes with recombinant human S1PR4, [32P]S1P): > 1000 nM
- IC50 (recombinant human S1PR5; read-out: IC50 (nM) S1PR5, mean ± SD, membranes with recombinant human S1PR5, [32P]S1P): > 1000 nM
Compound: OCc1cn(Cc2ccc(-c3noc(-c4ccc(OCCF)c(C(F)(F)F)c4)n3)cc2)nn1 [12b, (1-(4-(5-(4-(2-Fluoroethoxy)-3-(trifluoromethyl)phenyl)-1,2,4-oxadiazol-3-yl)benzyl)-1H-1,2,3-triazol-4-yl)met-hanol]

- IC50 (recombinant human S1PR1; S1PR1 IC50 (nM)): 99.8 ± 12.2 nM
- fold increased S1PR1 IC50 value compared to compound 4 (recombinant human S1PR1): 38 fold
Compound: O=C(O)CNCc1ccc(-c2noc(-c3ccc(OCCF)c(C(F)(F)F)c3)n2)cc1 [16a, (4-(5-(4-(2-Fluoroethoxy)-3-(trifluoromethyl)phenyl)-1,2,4-oxadiazol-3-yl)benzyl)glycine]

- IC50 (recombinant human S1PR1; S1PR1 IC50 (nM)): 44.2 ± 6.8 nM
Compound: NCCOCc1ccc(-c2noc(-c3ccc(OCCF)c(C(F)(F)F)c3)n2)cc1 [21b, 2-((4-(5-(4-(2-Fluoroethoxy)-3-(trifluoromethyl)phenyl)-1,2,4-oxadiazol-3-yl)benzyl)oxy)ethan-1-amine]

- fold decreased S1PR1 IC50 value compared to compound 9b (recombinant human S1PR1; vs benzamide 9b): 5 fold
- IC50 (recombinant human S1PR2): > 1000 nM
- IC50 (recombinant human S1PR3): > 1000 nM
Compound: NNC(=O)c1ccc(-c2noc(-c3ccc(OCCF)c(C(F)(F)F)c3)n2)cc1 [10c, 4-(5-(4-(2-Fluoroethoxy)-3-(trifluoromethyl)phenyl)-1,2,4-oxadiazol-3-yl)benzohydrazide]
